Results from paper PMC6471342, “Synthesis of Thymidine Phosphorylase Inhibitor Based on Quinoxaline Derivatives and Their Molecular Docking Study” (Molecules, 2019).
Where two headings read alike, the source gives them in different places.

Biological target: T1, thymidine phosphorylase/PD-ECGF (E. coli) (Escherichia coli, UniProt P07650)
T1 construct: purchased
Test: Thymidine phosphorylase inhibition assay (absorbance at 290 nm)
Assay type: biochemical
Settings: for IC50: Table 1, triplicate; for thymidine phosphorylase inhibition, result in words: compared with standard 7-Deazaxanthine
Protocol: Since human TP is not easy to obtain, we used commercially available recombinant E. coli TP. The primary sequence of TP is frequently preserved throughout evolution as mammalian TP is reported to share 39% sequence resemblance with the TP of E. coli. The mammalian enzyme also shared up to 70% resemblance with the active site residues, and three-dimensional structure of E. coli TP enzyme. The thymidine phosphorylase/PD-ECGF (E. coli) activity was determined by measuring the absorbance at 290 nm spectrophotometrically. The method was described in [50, 51]. In brief, the total reaction mixture of 200 µL contained 145 µL of potassium phosphate buffer (pH 7.4), 30 µL of enzyme (human and E. coli) at concentration 0.05 and 0.002 U, respectively, were incubated with 5 µL of test materials for 10 min at 25 °C in a microplate reader. After incubation, a pre-read at 290 nm was taken to deduce the absorbance of substrate particles. The substrate (20 µL, 1.5 mM), dissolved in potassium phosphate buffer, was immediately added to the plate and continuously read after 10, 20, and 30 min in a microplate reader (SpectraMax, Molecular Devices, CA, USA). All assays were performed in triplicate.
Reactions for above mentioned biological activities were carried out in triplicate. Results were then processed using SoftMax Pro 4.8 software (Molecular Devices, San Jose, CA, USA) and then by Microsoft Excel. The percent inhibition for above mentioned biological activities was calculated by following formula:Percent Inhibition = 100 − (ODtest compound/ODcontrol) × 100(1)

T1 sequence (P07650 whole entry): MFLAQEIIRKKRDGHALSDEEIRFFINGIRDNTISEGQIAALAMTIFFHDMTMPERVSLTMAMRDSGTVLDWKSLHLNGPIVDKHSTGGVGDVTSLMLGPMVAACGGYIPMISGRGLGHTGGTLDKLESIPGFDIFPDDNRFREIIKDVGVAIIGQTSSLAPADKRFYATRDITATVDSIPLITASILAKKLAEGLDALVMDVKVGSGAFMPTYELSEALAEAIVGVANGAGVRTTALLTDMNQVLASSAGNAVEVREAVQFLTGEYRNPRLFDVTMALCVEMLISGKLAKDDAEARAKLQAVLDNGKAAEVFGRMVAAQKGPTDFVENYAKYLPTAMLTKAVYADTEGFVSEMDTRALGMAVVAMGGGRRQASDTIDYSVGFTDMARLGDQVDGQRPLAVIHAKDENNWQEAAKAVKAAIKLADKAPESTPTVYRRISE

SMILES	IC50 (read-out: IC50 (mM ± SEM))	IC50 (read-out: IC50 (µM ± SEM))	thymidine phosphorylase inhibition, result in words
Oc1cccc(-c2csc3nnc(-c4cnc5ccccc5n4)n23)c1O [Compound 25, 3-(3-(quinoxalin-2-yl)thiazolo[2,3-c][1,2,4]triazol-5-yl)benzene-1,2-diol]	0.0032 ± 0.0001 mM		
Cc1ccccc1-c1csc2nnc(-c3cnc4ccccc4n3)n12 [Compound 9, 3-(quinoxalin-2-yl)-5-o-tolylthiazolo[2,3-c][1,2,4]triazole]		0.0564 ± 0.0012 mM	moderate inhibition
COc1ccc(-c2csc3nnc(-c4cnc5ccccc5n4)n23)c(O)c1 [Compound 17, 5-methoxy-2-(3-(quinoxalin-2-yl)thiazolo[2,3-c][1,2,4]triazol-5-yl)phenol]	0.0242 ± 0.0007 mM		outstanding inhibition
Oc1ccccc1-c1csc2nnc(-c3cnc4ccccc4n3)n12 [Compound 24, 2-(3-(quinoxalin-2-yl)thiazolo[2,3-c][1,2,4]triazol-5-yl)phenol]	0.0131 ± 0.0003 mM		outstanding inhibition
Fc1ccccc1-c1csc2nnc(-c3cnc4ccccc4n3)n12 [Compound 1, 5-(2-flourophenyl)-3(Quinoxalin-2yl)thiazolo[2,3-c][1,2,4]triazole]		0.0136 ± 0.0004 mM	outstanding inhibition
Clc1ccc(-c2csc3nnc(-c4cnc5ccccc5n4)n23)cc1 [Compound 6, 5-(4-chlorophenyl)-3(Quinoxalin-2yl)thiazolo[2,3-c][1,2,4]triazole]		0.0244 ± 0.0006 mM	outstanding inhibition
Oc1ccc(O)c(-c2csc3nnc(-c4cnc5ccccc5n4)n23)c1 [Compound 15, 2-(3-(quinoxalin-2-yl)thiazolo[2,3-c][1,2,4]triazol-5-yl)benzene-1,4-diol]	0.0152 ± 0.0005 mM		outstanding inhibition
COc1cccc(-c2csc3nnc(-c4cnc5ccccc5n4)n23)c1 [Compound 19, 5-(3-methoxyphenyl)-3-(quinoxalin-2-yl)thiazolo[2,3-c][1,2,4]triazole]			inactive
Fc1cccc(-c2csc3nnc(-c4cnc5ccccc5n4)n23)c1 [Compound 2, 5-(3-flourophenyl)-3(Quinoxalin-2yl)thiazolo[2,3-c][1,2,4]triazole]		0.0261 ± 0.0007 mM	outstanding inhibition
O=[N+]([O-])c1ccccc1-c1csc2nnc(-c3cnc4ccccc4n3)n12 [Compound 7, 5-(2-nitrophenyl)-3(Quinoxalin-2yl)thiazolo[2,3-c][1,2,4]triazole]		0.0347 ± 0.0008 mM	outstanding inhibition
c1ccc2nc(-c3nnc4scc(-c5ccncc5)n34)cnc2c1 [Compound 23, 5-(pyridin-4-yl)-3-(quinoxalin-2-yl)thiazolo[2,3-c][1,2,4]triazole]			inactive
Clc1ccccc1-c1csc2nnc(-c3cnc4ccccc4n3)n12 [Compound 4, 5-(2-chlorophenyl)-3(Quinoxalin-2yl)thiazolo[2,3-c][1,2,4]triazole]		0.0274 ± 0.0006 mM	outstanding inhibition
COc1ccc(-c2csc3nnc(-c4cnc5ccccc5n4)n23)cc1 [Compound 20, 5-(4-methoxyphenyl)-3-(quinoxalin-2-yl)thiazolo[2,3-c][1,2,4]triazole]			inactive
COc1ccc(O)c(-c2csc3nnc(-c4cnc5ccccc5n4)n23)c1 [Compound 21, 4-methoxy-2-(3-(quinoxalin-2-yl)thiazolo[2,3-c][1,2,4]triazol-5-yl)phenol]	0.0262 ± 0.0005 mM		outstanding inhibition
Oc1ccc(-c2csc3nnc(-c4cnc5ccccc5n4)n23)c(O)c1 [Compound 14, 4-(3-(quinoxalin-2-yl)thiazolo[2,3-c][1,2,4]triazol-5-yl)benzene-1,3-diol]	0.0132 ± 0.0004 mM		outstanding inhibition
Oc1ccc(-c2csc3nnc(-c4cnc5ccccc5n4)n23)cc1O [Compound 16, 4-(3-(quinoxalin-2-yl)thiazolo[2,3-c][1,2,4]triazol-5-yl)benzene-1,2-diol]	0.0035 ± 0.0002 mM		outstanding inhibition
c1cncc(-c2csc3nnc(-c4cnc5ccccc5n4)n23)c1 [Compound 22, 5-(pyridin-3-yl)-3-(quinoxalin-2-yl)thiazolo[2,3-c][1,2,4]triazole]			inactive
Oc1ccc(-c2csc3nnc(-c4cnc5ccccc5n4)n23)cc1 [Compound 13, 4-(3-(quinoxalin-2-yl)thiazolo[2,3-c][1,2,4]triazol-5-yl)phenol]		0.0183 ± 0.00055 mM	outstanding inhibition
Fc1ccc(-c2csc3nnc(-c4cnc5ccccc5n4)n23)cc1 [Compound 3, 5-(4-flourophenyl)-3(Quinoxalin-2yl)thiazolo[2,3-c][1,2,4]triazole]		0.0181 ± 0.0005 mM	outstanding inhibition
O=[N+]([O-])c1ccc(-c2csc3nnc(-c4cnc5ccccc5n4)n23)cc1 [Compound 8, 5-(4-nitrophenyl)-3(Quinoxalin-2yl)thiazolo[2,3-c][1,2,4]triazole]		0.0475 ± 0.0009 mM	moderate inhibition
Clc1cccc(-c2csc3nnc(-c4cnc5ccccc5n4)n23)c1 [Compound 5, 5-(3-chlorophenyl)-3(Quinoxalin-2yl)thiazolo[2,3-c][1,2,4]triazole]		0.0334 ± 0.0008 mM	outstanding inhibition
Oc1cccc(-c2csc3nnc(-c4cnc5ccccc5n4)n23)c1 [Compound 12, 3-(3-(quinoxalin-2-yl)thiazolo[2,3-c][1,2,4]triazol-5-yl)phenol]		0.0332 ± 0.00075 mM	outstanding inhibition
Cc1cccc(-c2csc3nnc(-c4cnc5ccccc5n4)n23)c1 [Compound 10, 3-(quinoxalin-2-yl)-5-m-tolylthiazolo[2,3-c][1,2,4]triazole]			inactive
Cc1ccc(-c2csc3nnc(-c4cnc5ccccc5n4)n23)cc1 [Compound 11, 3-(quinoxalin-2-yl)-5-p-tolylthiazolo[2,3-c][1,2,4]triazole]			inactive
COc1ccc(-c2csc3nnc(-c4cnc5ccccc5n4)n23)cc1O [Compound 18, 2-methoxy-5-(3-(quinoxalin-2-yl)thiazolo[2,3-c][1,2,4]triazol-5-yl)phenol]	0.0169 ± 0.0006 mM		outstanding inhibition
